Measurements published in article PMC6410080 (Viruses, 2019).
pIC50: −log10 of the molar value. Where “and” joins values, the source holds several entries; their conditions need not be identical. Equal entries are not always repeated. Structures can show the parent of a compound that is named as a salt. Where two headings read alike, the source gives them in different places.

Key:
[1] = tested on: SFV; experiment: microbe, parasite or virus in culture; format: cell-based, Semliki Forest virus; settings: for inhibition at 10 µM: M-HeLa, 7 h, read-out: % inhibition (SFV screen); for % inhibition (SFV screen): 10 µM
[2] = tested on: DENV-2; experiment: DENV-2 infection assay / secondary screen (E protein staining); format: cell-based, dengue virus serotype 2; settings: for inhibition at 10 µM / pIC50: Dengue virus, DENV2, Huh-7, 24 h; for inhibition at 10 µM: read-out: % inhibition (DENV-2 screen)
[3] = in vitro; settings: human, % viability (SFV screen)
[4] = in vitro; settings: human
[5] = tested on: HeLa Kyoto cells; settings: 10 µM
[6] = tested on: Huh7 cells; settings: 10 µM
[7] = tested on: Renilla luciferase expression (protein synthesis); format: cell-based
[8] = tested on: SINV; experiment: microbe, parasite or virus in culture; format: cell-based, Sindbis virus; settings: Sindbis virus, HeLa Kyoto, read-out: IC50 SINV
[9] = tested on: DENV-1; experiment: microbe, parasite or virus in culture; format: cell-based, dengue virus; settings: Dengue virus, DENV1, Huh-7, read-out: IC50 DENV-1
[10] = tested on: DENV-3; experiment: microbe, parasite or virus in culture; format: cell-based, dengue virus; settings: Dengue virus, DENV3, Huh-7, read-out: IC50 DENV-3
[11] = tested on: ZIKV; experiment: microbe, parasite or virus in culture; format: cell-based, Zika virus; settings: Zika virus, Huh-7, read-out: IC50 ZIKV
[12] = tested on: YF17D; experiment: organism not typed; format: cell-based, yellow fever 17D; settings: Huh-7, read-out: IC50 YF17D
[13] = tested on: HCV; experiment: microbe, parasite or virus in culture; format: cell-based, hepatitis C virus; settings: Hepatitis C virus, Huh7.5, read-out: IC50 HCV
[14] = tested on: VSV VLP; experiment: microbe, parasite or virus in culture; format: cell-based, vesicular stomatitis virus; settings: Vesicular stomatitis virus, HeLa Kyoto, 24 h, read-out: IC50 VSV
[15] = tested on: RABV VLP; experiment: microbe, parasite or virus in culture; format: cell-based, rabies virus; settings: Lyssavirus rabies, HeLa Kyoto, 24 h, read-out: IC50 RABV
[16] = tested on: H5N1 VLP; experiment: microbe, parasite or virus in culture; format: cell-based, influenza H5N1; settings: Influenza A virus, H5N1, HeLa Kyoto, 48 h, read-out: IC50 H5N1
[17] = tested on: EBOV VLP; experiment: microbe, parasite or virus in culture; format: cell-based, Ebola virus; settings: Zaire ebolavirus, HeLa Kyoto, 48 h, read-out: IC50 EBOV
[18] = tested on: HSV-1; experiment: microbe, parasite or virus in culture; format: cell-based, herpes simplex virus 1; settings: Human alphaherpesvirus 1, Vero, 8 h, read-out: IC50 HSV (Vero)
[19] = tested on: VACV; experiment: microbe, parasite or virus in culture; format: cell-based, vaccinia virus
[20] = tested on: SFV; format: cell-based, Semliki Forest virus
[21] = tested on: viruses/VLPs tested; format: cell-based
[22] = tested on: HeLa Kyoto cells; settings: human
[23] = tested on: Huh7 cells; experiment: MTT assay, Huh7 cells

With `Cc1ccc(S(=O)(=O)NC(=O)NN2CCCCCC2)cc1` [Tolazamide] the inhibition at 10 µM ([1]; Semliki Forest virus) was 101%, the inhibition at 10 µM [2] was 36.5% and the viability at 10 µM [3] was 113%. For the same molecule, the viability at 10 µM [4] was 116%.
With `CCSc1ccc2c(c1)N(CCCN1CCN(C)CC1)c1ccccc1S2.O=C(O)CC(O)C(=O)O.O=C(O)CC(O)C(=O)O` [Thiethylperazine dimalate] the “% inhibition (SFV screen)” value [1] was 91.68%, the “% viability (SFV screen)” value [5] was 92.47% and the “% viability (DENV-2 screen)” value [6] was 0.15%.
In the case of `CCOC(=O)N1CCN(/[N+]([O-])=N/Oc2ccc([N+](=O)[O-])cc2[N+](=O)[O-])CC1` [JS-K], the “% inhibition (SFV screen)” value [1] was 84.89%, the “% inhibition (DENV-2 screen)” value ([2]; 10 µM, Huh7, MOI 1, 24 h, compared to DMSO-treated controls) was 84.24% and the “% viability (SFV screen)” value [5] was 66.74%. For the same molecule, the “% viability (DENV-2 screen)” value ([6]; Huh7, 24 h, compared to DMSO-treated controls) was 53.82%.
In the case of `CC[C@H]1CN2CCc3cc(OC)c(OC)cc3[C@@H]2C[C@@H]1C[C@H]1NCCc2cc(OC)c(OC)cc21` [Emetine dihydrochloride hydrate], the inhibition at 10 µM ([1]; Semliki Forest virus) was 104%, the inhibition at 10 µM [2] was 100% and the “Renilla signal (in words)” value [7] was “significantly reduced the Renilla signal”. For the same molecule, the viability at 10 µM [3] was 104% and the viability at 10 µM [4] was 51.2%.
With `c1ccc2c(c1)OCC(C1=NCCN1)O2` (centres unmarked) [Idazoxan hydrochloride] the inhibition at 10 µM ([1]; Semliki Forest virus) was 94.5%, the inhibition at 10 µM [2] was 48.8% and the viability at 10 µM [3] was 67.6%. It also gave a viability at 10 µM [4] of 71.2%.
For `Nc1ncn([C@@H]2O[C@H](CO)[C@@H](O)[C@H]2O)c(=O)n1` [5-azacytidine], the “% inhibition (SFV screen)” value [1] was 101.05%, the inhibition at 10 µM ([1]; Semliki Forest virus) was 99.8% and the inhibition at 10 µM [2] was 9.67%. For the same molecule, the “% viability (SFV screen)” value ([5]; human) was 75.30%, the viability at 10 µM [3] was 75.5% and the viability at 10 µM [4] was 106%.
With `C/C=C(/C)C(=O)O[C@H]1C(C)=C2[C@H]([C@@H]1OC(=O)CCCCCCC)[C@@](C)(OC(C)=O)C[C@H](OC(=O)CCC)[C@@]1(O)[C@H]2OC(=O)[C@@]1(C)O` [Thapsigargin] the inhibition at 10 µM ([1]; Semliki Forest virus) was 83.4%, the inhibition at 10 µM [2] was 98% and the viability at 10 µM [3] was 103%. It also gave a viability at 10 µM [4] of 53.3%.
For `O=C1c2c(O)ccc(O)c2C(=O)c2c(NCCNCCO)ccc(NCCNCCO)c21` [Mitoxantrone, Mitoxantrone dihydrochloride], the “% inhibition (SFV screen)” value [1] was 59.01% and 85.19%, the pIC50 ([1]; Semliki Forest virus, HeLa Kyoto, read-out: IC50 SFV (7 h)) was 5.15 and the inhibition at 10 µM [2] was 99.4%. It also gave a pIC50 ([2]; read-out: IC50 DENV-2 (7 + 17 h)) of 5.70, a pIC50 ([2]; read-out: IC50 DENV-2 (24 h)) of 5.68 and a pIC50 [8] of 5.00. For the same molecule, the pIC50 [9] was 5.25, the pIC50 [10] was 5.20 and the pIC50 [11] was about 4.60. For the same molecule, the pIC50 [12] was 5.66, the pIC50 [13] was 5.57 and the pIC50 [14] was 6.22. For the same molecule, the pIC50 [15] was over 6.30, the pIC50 [16] was 5.55 and the pIC50 [17] was 7.00. For the same molecule, the pIC50 [18] was 5.17, the “IC50 VACV” value [19] was “No inhibition” and the “Activity when added before SFV or 30 and 60 min after internalisation” value [20] was “progressive and more dramatic decrease in activity”. The “Time of Addition” value [20] was “Before and after fusion”, the “Viruses Inhibited” value [21] was “Unclear pattern” and the “TC50 SFV (7 h)” value [22] was 43.2 µM. The “TC50 SFV (7h)” value [22] was 43200 µM, the “% viability (SFV screen)” value ([5]; human) was 88.92% and the viability at 10 µM [3] was 88.5%. For the same molecule, the viability at 10 µM [4] was 11.2%, the “TC50 DENV-2 (7 + 17 h)” value ([23]; Huh7, compounds 7 h then compound-free media 17 h) was 7.9 µM and the “TC50 DENV-2 (24 h)” value ([23]; Huh7, compounds 24 h) was 4.6 µM.
In the case of `Nc1ccn([C@@H]2O[C@H](CO)[C@@H](O)C2(F)F)c(=O)n1` [Gemcitabine], the inhibition at 10 µM ([1]; Semliki Forest virus) was 67%, the inhibition at 10 µM [2] was -137% and the viability at 10 µM [3] was 102%. The viability at 10 µM [4] was 61.8%.
For `CCN(CC)CCOc1ccc(C(=C(Cl)c2ccccc2)c2ccccc2)cc1` [Clomiphene, Clomiphene citrate (Z,E)], the inhibition at 10 µM ([1]; Semliki Forest virus) was 77.8%, the inhibition at 10 µM [2] was 99.3% and the “TC50 SFV (7h)” value [22] was 27400 µM. The viability at 10 µM [3] was 97.1% and the viability at 10 µM [4] was 41.8%.
For `CC/C(=C(\c1ccccc1)c1ccc(OCCN(C)C)cc1)c1ccccc1` [Tamoxifen citrate], the inhibition at 10 µM ([1]; Semliki Forest virus) was 98.3% and the viability at 10 µM [3] was 61.7%.
Molecule `CSc1ccc2c(c1)N(CCC1CCCCN1C)c1ccccc1S2` (centres unmarked) [Thioridazine hydrochloride] has an inhibition at 10 µM ([1]; Semliki Forest virus) of 89.1%, a viability at 10 µM [3] of 71.3% and a viability at 10 µM [4] of 5.89%.
For `CN[C@@H]1C[C@@H](c2ccc(Cl)c(Cl)c2)c2ccccc21` [Indatraline hydrochloride], the inhibition at 10 µM ([1]; Semliki Forest virus) was 72.2%, the viability at 10 µM [3] was 76.4% and the viability at 10 µM [4] was 1.66%.
